Values of other authors, collected in publication PMC9851200, “Multiparameter phenotypic screening for endogenous TFEB and TFE3 translocation identifies novel chemical series modulating lysosome function” (Autophagy, 2022).

How the values were obtained:
Parameters in all cases: method as in original PKIS2 published data
[1] = target: T1, kinases (KINOMEscan panel) (Homo sapiens, UniProt Q8TBX8); settings: PIP4K2C; Published KINOMEscan; ref original PKIS2 published data; cited from earlier work
T1 sequence (Q8TBX8 1-421): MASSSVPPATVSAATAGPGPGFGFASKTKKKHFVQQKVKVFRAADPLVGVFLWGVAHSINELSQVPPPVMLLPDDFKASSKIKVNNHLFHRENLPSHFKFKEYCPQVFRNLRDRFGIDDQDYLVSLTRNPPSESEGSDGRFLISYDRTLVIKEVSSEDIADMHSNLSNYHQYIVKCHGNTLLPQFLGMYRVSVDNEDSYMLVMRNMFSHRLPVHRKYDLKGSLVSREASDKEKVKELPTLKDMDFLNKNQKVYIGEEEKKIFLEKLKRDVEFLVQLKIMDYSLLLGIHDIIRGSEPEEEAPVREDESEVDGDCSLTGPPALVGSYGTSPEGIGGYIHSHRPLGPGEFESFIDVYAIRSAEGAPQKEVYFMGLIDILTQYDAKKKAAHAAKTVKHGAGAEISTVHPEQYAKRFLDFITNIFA

[2] = target: kinases (KINOMEscan panel) (Homo sapiens, UniProt P80192); settings: Published KINOMEscan; ref original PKIS2 published data; cited from earlier work
[3] = target: T2, kinases (KINOMEscan panel) (Homo sapiens, UniProt Q9Y616); settings: IRAK3; Published KINOMEscan; ref original PKIS2 published data; cited from earlier work
T2 sequence (Q9Y616 1-596): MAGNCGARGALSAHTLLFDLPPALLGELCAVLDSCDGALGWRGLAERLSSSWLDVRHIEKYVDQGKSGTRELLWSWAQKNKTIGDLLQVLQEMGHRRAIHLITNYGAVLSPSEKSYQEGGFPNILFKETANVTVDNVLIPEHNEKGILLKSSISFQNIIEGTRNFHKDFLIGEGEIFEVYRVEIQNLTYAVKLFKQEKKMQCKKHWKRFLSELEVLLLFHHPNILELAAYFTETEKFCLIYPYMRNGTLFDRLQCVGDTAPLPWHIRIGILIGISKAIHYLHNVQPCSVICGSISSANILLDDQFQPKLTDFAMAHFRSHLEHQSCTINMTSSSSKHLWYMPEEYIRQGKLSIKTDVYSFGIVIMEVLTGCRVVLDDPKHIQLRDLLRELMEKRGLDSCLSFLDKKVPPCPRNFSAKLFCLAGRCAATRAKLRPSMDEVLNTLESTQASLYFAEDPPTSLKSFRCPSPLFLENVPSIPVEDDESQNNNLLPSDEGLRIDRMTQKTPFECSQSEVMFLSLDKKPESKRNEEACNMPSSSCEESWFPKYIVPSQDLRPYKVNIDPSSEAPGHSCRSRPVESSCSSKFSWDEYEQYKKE

[4] = target: T3, kinases (KINOMEscan panel) (Homo sapiens, UniProt P29320); settings: kinase EPHA3; Published KINOMEscan; ref original PKIS2 published data; cited from earlier work
T3 sequence (P29320 21-983): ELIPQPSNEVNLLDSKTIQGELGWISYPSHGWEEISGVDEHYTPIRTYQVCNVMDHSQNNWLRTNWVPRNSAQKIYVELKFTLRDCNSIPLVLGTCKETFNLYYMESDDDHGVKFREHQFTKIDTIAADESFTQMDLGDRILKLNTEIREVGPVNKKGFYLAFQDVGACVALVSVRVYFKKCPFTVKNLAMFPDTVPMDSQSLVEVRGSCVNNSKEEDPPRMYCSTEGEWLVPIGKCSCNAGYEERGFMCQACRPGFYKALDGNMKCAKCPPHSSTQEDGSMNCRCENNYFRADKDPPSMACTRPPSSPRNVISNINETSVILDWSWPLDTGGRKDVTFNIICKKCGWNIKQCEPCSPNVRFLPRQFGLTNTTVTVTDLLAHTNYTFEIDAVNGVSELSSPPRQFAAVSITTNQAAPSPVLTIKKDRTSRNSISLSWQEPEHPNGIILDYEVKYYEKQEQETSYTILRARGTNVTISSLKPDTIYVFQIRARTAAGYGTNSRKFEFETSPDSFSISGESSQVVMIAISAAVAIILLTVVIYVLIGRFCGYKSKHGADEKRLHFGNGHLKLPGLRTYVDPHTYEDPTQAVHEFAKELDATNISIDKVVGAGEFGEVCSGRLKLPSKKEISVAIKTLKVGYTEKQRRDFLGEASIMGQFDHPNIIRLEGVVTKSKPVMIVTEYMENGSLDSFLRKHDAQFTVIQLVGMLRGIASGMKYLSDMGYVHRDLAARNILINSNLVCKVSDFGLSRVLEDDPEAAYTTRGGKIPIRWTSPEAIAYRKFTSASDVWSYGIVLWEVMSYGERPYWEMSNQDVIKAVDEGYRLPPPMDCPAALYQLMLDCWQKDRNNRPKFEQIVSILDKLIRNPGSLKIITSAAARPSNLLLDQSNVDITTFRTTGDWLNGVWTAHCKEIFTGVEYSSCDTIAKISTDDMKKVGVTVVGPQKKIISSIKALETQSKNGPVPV

kinases (KINOMEscan panel) (Homo sapiens, UniProt P80192), sequence (P80192 whole entry): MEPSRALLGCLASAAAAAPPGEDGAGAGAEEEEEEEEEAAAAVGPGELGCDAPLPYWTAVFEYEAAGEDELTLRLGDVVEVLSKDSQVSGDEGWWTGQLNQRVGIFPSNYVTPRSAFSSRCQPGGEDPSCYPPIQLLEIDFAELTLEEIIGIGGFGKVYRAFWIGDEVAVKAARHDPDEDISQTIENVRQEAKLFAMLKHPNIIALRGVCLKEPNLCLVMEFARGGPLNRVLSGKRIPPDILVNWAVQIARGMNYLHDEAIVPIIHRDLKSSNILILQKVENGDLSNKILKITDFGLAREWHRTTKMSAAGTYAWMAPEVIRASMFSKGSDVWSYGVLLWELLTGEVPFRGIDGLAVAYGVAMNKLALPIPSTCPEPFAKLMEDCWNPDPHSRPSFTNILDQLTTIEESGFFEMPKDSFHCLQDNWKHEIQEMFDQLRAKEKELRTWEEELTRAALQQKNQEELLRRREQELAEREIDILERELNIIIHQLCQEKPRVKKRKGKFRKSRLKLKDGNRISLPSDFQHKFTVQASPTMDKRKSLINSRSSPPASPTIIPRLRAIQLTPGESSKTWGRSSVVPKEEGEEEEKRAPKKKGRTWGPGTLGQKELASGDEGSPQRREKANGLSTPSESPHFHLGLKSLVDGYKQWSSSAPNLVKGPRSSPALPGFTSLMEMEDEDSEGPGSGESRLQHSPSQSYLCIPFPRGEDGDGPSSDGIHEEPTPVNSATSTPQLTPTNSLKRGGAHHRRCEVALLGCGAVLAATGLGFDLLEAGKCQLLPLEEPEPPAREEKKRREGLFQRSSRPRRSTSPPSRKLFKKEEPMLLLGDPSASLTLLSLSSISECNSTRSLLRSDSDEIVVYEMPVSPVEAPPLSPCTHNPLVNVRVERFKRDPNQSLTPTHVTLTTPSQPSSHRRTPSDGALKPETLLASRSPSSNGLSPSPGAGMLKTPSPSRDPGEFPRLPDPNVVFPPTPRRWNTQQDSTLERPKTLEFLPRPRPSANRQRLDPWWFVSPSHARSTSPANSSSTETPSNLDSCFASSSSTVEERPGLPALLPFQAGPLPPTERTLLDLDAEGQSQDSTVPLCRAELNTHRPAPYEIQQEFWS

**Q.** For `Cc1cccc(-c2nc(Nc3ccncc3)c3ccccc3n2)n1` [NK215], which “KINOMEscan PIP4K2C” value [1] is on record?
**A.** 18

**Q.** And the “KINOMEscan MAP3K9” value [2]?
**A.** 11

**Q.** What about the “KINOMEscan IRAK3” value [3] of the same molecule?
**A.** 21

**Q.** And the “KINOMEscan EPHA3” value [4]?
**A.** 0
